Test results: patent US8921576B2, “Spiroindoline compound, and medicinal agent comprising same” (Kowa Company, Ltd., priority 2011, dated 2014)

Target: T1, GST-GK derived from human liver GK (Homo sapiens, UniProt P35557)
T1 construct: made in house; host or cells: Escherichia coli DH5α
T1 sequence (P35557 1-466 isoform P35557-2): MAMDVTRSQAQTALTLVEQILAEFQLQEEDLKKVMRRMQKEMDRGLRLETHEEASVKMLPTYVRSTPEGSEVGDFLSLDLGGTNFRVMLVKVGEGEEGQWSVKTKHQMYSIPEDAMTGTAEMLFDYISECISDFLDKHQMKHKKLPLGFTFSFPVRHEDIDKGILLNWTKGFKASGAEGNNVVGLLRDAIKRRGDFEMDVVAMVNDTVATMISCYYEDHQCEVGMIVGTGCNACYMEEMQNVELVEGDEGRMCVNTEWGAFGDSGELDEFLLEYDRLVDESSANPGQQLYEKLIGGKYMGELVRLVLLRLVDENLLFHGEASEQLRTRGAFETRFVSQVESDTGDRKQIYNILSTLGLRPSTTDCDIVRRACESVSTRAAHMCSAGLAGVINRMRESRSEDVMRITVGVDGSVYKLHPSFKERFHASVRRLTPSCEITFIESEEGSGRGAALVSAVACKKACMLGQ
Test: In vitro GK activity measurement test (G6PDH-coupled, OD340)
Format: biochemical
Conditions: test compound 1 μmol/L; glucose 2.5 mmol/L; 25° C.; OD340 slope with compound / without compound; read-out: GK activation rate (%)
From the text: cDNA (GenBank Accession No. NM_033507, human glucokinase, variant 2) encoding human liver-type GK polypeptide was cloned by performing a polymerase chain reaction (hereinafter referred to as “PCR”) using a human liver cDNA library (Human liver QUICK-Clone cDNA, TAKARA BIO INC.), and the thus cloned cDNA was then introduced into an expression vector (pGEX-3X, GE Healthcare Japan) for glutathione S transferase (hereinafter referred to as GST) fusion protein expression. The resulting vector was introduced into Escherichia coli (Competent high DH5α, Toyobo Co., Ltd.), and the transformed Escherichia coli was then cultured at 37° C. Thereafter, Isopropyl β-D-1-thiogalactopyranoside (final concentration: 1 mmol/L, Sigma Aldrich Japan) was added to the culture, and the obtained mixture was then cultured at 30° C. for 3 hours. Thereafter, a cell mass was recovered. The recovered cell mass was subjected to freezing-and-thawing, and the resulting cell mass was then suspended in phosphate buffer with final concentration of 1% Triton X-100, followed by disintegration with an ultrasonic disruptor. The homogenate was centrifuged at 33,200 rpm at 4° C. for 1 hour. Thereafter, the supernatant was recovered, and a GST-GK fusion protein was then purified using a glutathione column (GSTrap FF, GE Healthcare Japan). The obtained GST-GK fusion protein was divided into some portions each having a small volume, and the thus divided proteins were then preserved at −80° C.
A GK assay method was carried out at 25° C. at a final incubation volume of 100 μL in a flat-bottom 96-well assay plate. An assay buffer comprised 25 mmol/L Hepes buffer (pH 7.1), 25 mmol/L KCl, 2.5 mmol/L or 10 mmol/L D-glucose, 5 mmol/L ATP, 1 mmol/L nicotinamide adenine dinucleotide phosphate (abbreviated as NADP), 2 mmol/L MgCl2, 1 mmol/L dithiothreitol (DTT), 2 units/mL glucose-6 phosphate dehydrogenase (G6PDH), and 1 μg/mL GST-GK derived from human liver GK. ATP, G6PDH, and NADP were purchased from Roche Diagnostics. […] The thus mixed solution was preincubated in an incubator in which the temperature was controlled at 25° C. for 15 minutes. Subsequently, the reaction was initiated by adding 10 μL of the GST-GK solution to the reaction mixture, resulting in a final concentration of 0.1 μg/mL. After initiation of the reaction, an increase in the optical concentration at 340 nm (OD340) was monitored with a microplate spectrophotometer (Varsamax, Molecular Devices Japan K.K.) every 10 seconds over an incubation period of 10 minutes. An inclination of the OD340 increase was defined as raw data. The GK activating rate was indicated as a numerical value obtained from the expression: (Inclination of OD340 increase by addition of the test compound)/(inclination of OD340 increase without addition of the test compound). The results of the GK activating rate obtained at a test compound concentration of 1 μmol/L under the condition of a glucose concentration of 2.5 mmol/L are shown in the following table.

| activity at 1 µM [%] | SMILES |
| --- | --- |
| 636 | CNC(=O)N1CC[C@@]2(C1)CN(C(=O)Nc1ncc(OC)s1)c1ccc(Cl)cc12 [Example 380, (R)-5-Chloro-N1-(5-methoxythiazol-2-yl)-N1′-methylspiro[indoline-3,3′-pyrrolidine]-1,1′-dicarboxamide] |
| 597 | COc1ccc2nc(NC(=O)N3CC4(CCN(C(C)=O)C4)c4cc(S(=O)(=O)NCc5ccccc5OC)ccc43)sc2n1 (centres unmarked) [Example 263, 1′-Acetyl-5-(N-(2-methoxybenzyl)sulfamoyl)-N-(5-methoxythiazolo[5,4-b]pyridin-2-yl)spiro[indoline-3,3′-pyrrolidine]-1-carboxamide] |
| 438 | CNC(=O)N1CCC2(C1)CN(C(=O)Nc1ncc(Cl)s1)c1ccc(CCCC(=O)N3CCC3)cc12 (centres unmarked) [Example 424, 5-(4-(Azetidin-1-yl)-4-oxobutyl)-N1-(5-chlorothiazol-2-yl)-N1′-methylspiro[indoline-3,3′-pyrrolidine]-1,1′-dicarboxamide] |
| 442 | COC(=O)N1CCC2(C1)CN(C(=O)Nc1ncc(SCCCN(C)C)s1)c1ccc(Cl)cc12 (centres unmarked) [Example 180, Methyl 5-chloro-1-((5-((3-(dimethylamino)propyl)thio)thiazol-2-yl)carbamoyl)spiro[indoline-3,3′-pyrrolidine]-1′-carboxylate] |
| 520 | CNC(=O)N1CCC2(C1)CN(C(=O)Nc1ncc(OC)s1)c1ccc(C(F)(F)F)cc12 (centres unmarked) [Example 439, N1-(5-Methoxythiazol-2-yl)-N1′-methyl-5-(trifluoromethyl)spiro[indoline-3,3′-pyrrolidine]-1,1′-dicarboxamide] |
| 633 | CNC(=S)N1CCC2(C1)CN(C(=O)Nc1ncc(Cl)s1)c1ccc(Cl)cc12 (centres unmarked) [Example 449, 5-Chloro-N-(5-chlorothiazol-2-yl)-1′-(methylcarbamothioyl)spiro[indoline-3,3′-pyrrolidine]-1-carboxamide] |
| 716 | CC(=O)N1CCC2(C1)CN(C(=O)Nc1ncc(Cl)s1)c1ccc(Br)cc12 (centres unmarked) [Example 3, 1′-acetyl-5-bromo-N-(5-chlorothiazol-2-yl)spiro[indoline-3,3′-pyrrolidine]-1-carboxamide] |
| 456 | CNC(=O)CCCNC(=O)N1CCC2(C1)CN(C(=O)Nc1ncc(Cl)s1)c1ccc(Cl)cc12 (centres unmarked) [Example 472, 5-Chloro-N1-(5-chlorothiazol-2-yl)-N1′-(4-(methylamino)-4-oxobutyl)spiro[indoline-3,3′-pyrrolidine]-1,1′-dicarboxamide] |
| 454 | CCOC(=O)CCNC(=O)N1CCC2(C1)CN(C(=O)Nc1ncc(Cl)s1)c1ccc(Cl)cc12 (centres unmarked) [Example 462, Ethyl 3-(5-chloro-1-((5-chlorothiazol-2-yl)carbamoyl)spiro[indoline-3,3′-pyrrolidin]-1′-ylcarboxamido)propionate] |
| 480 | CS(=O)(=O)CCNC(=O)N1CCC2(C1)CN(C(=O)Nc1ncc(Cl)s1)c1ccc(Cl)cc12 (centres unmarked) [Example 467, 5-chloro-N1-(5-chlorothiazol-2-yl)-N1′-(2-(methylsulfonyl)ethyl)spiro[indoline-3,3′-pyrrolidine]-1,1′-dicarboxamide] |
| 462 | CONC(=O)CCCSc1cnc(NC(=O)N2CC3(CCN(C(=O)OC)C3)c3cc(Cl)ccc32)s1 (centres unmarked) [Example 168, methyl 5-chloro-1-((5-((4-(methoxyamino)-4-oxobutyl)thio)thiazol-2-yl)carbamoyl)spiro[indoline-3,3′-pyrrolidine]-1′-carboxylate] |
| 659 | CNC(=O)N1CC[C@@]2(C1)CN(C(=O)Nc1ncc(F)s1)c1ccc(C(F)(F)F)cc12 [Example 487, (R)—N1-(5-Fluorothiazol-2-yl)-N1′-methyl-5-(trifluoromethyl)spiro[indoline-3,3′-pyrrolidine]-1,1′-dicarboxamide] |
| 429 | NCC(=O)N1CCC2(C1)CN(C(=O)Nc1ncc(Cl)s1)c1ccc(Br)cc12 (centres unmarked) [Example 20, 1′-(2-aminoacetyl)-5-bromo-N-(5-chlorothiazol-2-yl)spiro[indoline-3,3′-pyrrolidine]-1-carboxamide] |
| 416 | COc1cnc(NC(=O)N2CC3(CCN(C(=O)CO)C3)c3cc(C(F)(F)F)ccc32)s1 (centres unmarked) [Example 441, 1′-(2-Hydroxyacetyl)-N-(5-methoxythiazol-2-yl)-5-(trifluoromethyl)spiro[indoline-3,3′-pyrrolidine]-1-carboxamide] |
| 477 | CONC(=O)N1CCC2(C1)CN(C(=O)Nc1ncc(Cl)s1)c1ccc(Cl)cc12 (centres unmarked) [Example 480, 5-Chloro-N1-(5-chlorothiazol-2-yl)-N1′-methoxyspiro[indoline-3,3′-pyrrolidine]-1,1′-dicarboxamide] |
| 530 | COC(=O)N1CCC2(C1)CN(C(=O)Nc1ncc(SCCCNC(C)=O)s1)c1ccc(Cl)cc12 (centres unmarked) [Example 177, methyl 1-((5-((3-acetamidopropyl)thio)thiazol-2-yl)carbamoyl)-5-chlorospiro[indoline-3,3′-pyrrolidine]-1′-carboxylate] |
| 785 | COC(=O)N1CC[C@@]2(C1)CN(C(=O)Nc1nc3ccc(OC)nc3s1)c1ccc(S(=O)(=O)N(CCO)Cc3ccccc3)cc12 [Example 345, (S)-methyl 5-(N-benzyl-N-(2-hydroxyethyl)sulfamoyl)-1-((5-methoxythiazolo[5,4-b]pyridin-2-yl)carbamoyl)spiro[indoline-3,3′-pyrrolidine]-1′-carboxylate] |
| 486 | NCC(=O)N1CC[C@@]2(C1)CN(C(=O)Nc1ncc(Cl)s1)c1ccc(Cl)cc12 [Example 353, (R)-1′-(2-aminoacetyl)-5-chloro-N-(5-chlorothiazol-2-yl)spiro[indoline-3,3′-pyrrolidine]-1-carboxamide] |
| 465 | CNC(=O)N1CC[C@@]2(C1)CN(C(=O)Nc1ncc(OC)s1)c1ccc(C#N)cc12 [Example 381, (R)-5-Cyano-N1-(5-methoxythiazol-2-yl)-N1′-methylspiro[indoline-3,3′-pyrrolidine]-1,1′-dicarboxamide] |
| 678 | COC(=O)N1CCC2(C1)CN(C(=O)Nc1ncc(Cl)s1)c1ccc(Br)cc12 (centres unmarked) [Example 13, Methyl 5-bromo-1-((5-chlorothiazol-2-yl)carbamoyl)spiro[indoline-3,3′-pyrrolidine]-1′-carboxylate] |
| 611 | COC(=O)N1CC[C@@]2(C1)CN(C(=O)Nc1nc3ccc(OC)nc3s1)c1ccc(S(=O)(=O)N(CCN(C)C)Cc3ccccc3)cc12 [Example 347, (S)-methyl 5-(N-benzyl-N-(2-(dimethylamino)ethyl)sulfamoyl)-1-((5-methoxythiazolo[5,4-b]pyridin-2-yl)carbamoyl)spiro[indoline-3,3′-pyrrolidine]-1′-carboxylate] |
| 532 | COC(=O)N1CCC2(C1)CN(C(=O)Nc1ncc(SCCCC(=O)NO)s1)c1ccc(Cl)cc12 (centres unmarked) [Example 169, methyl 5-chloro-1-((5-((4-(hydroxyamino)-4-oxobutyl)thio)thiazol-2-yl)carbamoyl)spiro[indoline-3,3′-pyrrolidine]-1′-carboxylate] |
| 484 | COCCCSc1cnc(NC(=O)N2CC3(CCN(C(=O)OC)C3)c3cc(Cl)ccc32)s1 (centres unmarked) [Example 162, Methyl 5-chloro-1-((5-((3-methoxypropyl)thio)thiazol-2-yl)carbamoyl)spiro[indoline-3,3′-pyrrolidine]-1′-carboxylate] |
